Counter-ions that a name gives are not always drawn.
These compounds were tested against RIPK1 (recombinant GST-RIPK1 kinase domain, residues 1-327) (Homo sapiens (Human), UniProt Q13546) (assay: RIPK1-ADP-Glo Enzymatic Assay). Conditions: ADP-Glo; 25 nM GST-RIPK1, 300 μM ATP; assay lower limit ~25 nM; read-out: RIPK1 V0 Ec50.
Format: biochemical
Summary of the method: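 GST-tagged kinase domain (residues 1-327, Sf21-expressed), 25 nM, pre-incubated 30 min with compound at ambient temperature, then reacted 150 min with 300 μM ATP and 3 μM dephosphorylated MBP in HEPES pH 7.3 buffer. ADP measured by ADP-Glo luminescence; EC50 from ten-point titration (top 100000 nM), four-parameter fit.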

Chain of RIPK1 (recombinant GST-RIPK1 kinase domain, residues 1-327) (Q13546 1-327): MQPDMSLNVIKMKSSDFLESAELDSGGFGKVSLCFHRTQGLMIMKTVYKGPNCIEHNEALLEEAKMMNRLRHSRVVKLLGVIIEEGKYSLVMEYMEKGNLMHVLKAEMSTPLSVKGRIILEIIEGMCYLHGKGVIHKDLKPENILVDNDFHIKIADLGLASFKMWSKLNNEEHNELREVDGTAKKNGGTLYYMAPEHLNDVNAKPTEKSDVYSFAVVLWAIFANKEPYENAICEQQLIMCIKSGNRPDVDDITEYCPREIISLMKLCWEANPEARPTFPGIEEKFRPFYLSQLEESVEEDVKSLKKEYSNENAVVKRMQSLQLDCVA

EC50 [nM]	Structure (SMILES)
82.4	O=C(c1cc(C2CC2)on1)N1CCC2(CC1)O[C@@H]1CC[C@@H](c3cc(F)cc(F)c3)N1C2=O [Example 6.25, (5′S,7a′R)-1-(5-cyclo-propyl-1,2-oxazole-3-carbonyl)-5′-(3,5-difluorophenyl)tetra-hydro-3′H-spiro[piperi-dine-4,2′-pyrrolo[2,1-b][1,3]oxazol]-3′-one]
< 25	O=C(c1ccccc1)N1CCC2(CC1)O[C@@H]1CC[C@@H](c3ccccc3F)N1C2=O [Example 1.13, (5′S,7a′R)-1-benzoyl-5′-(2-fluorophenyl)tetrahydro-3′H-spiro[piperidine-4,2′-pyrrolo[2,1-b]oxazol]-3′-one]
76	COC(=O)c1cnc(N2CCC3(CC2)O[C@@H]2CC[C@@H](c4ccccc4)N2C3=O)cc1OC [Example 4.210, methyl 4-methoxy-6-[(5′S,7a′R)-3′-oxo-5′-phenyltetrahydro-1H,3′H-spiro[piperidine-4,2′-pyrrolo[2,1-b] [1,3]oxazol]-1-yl]pyridine-3-carboxylate]
< 25	O=C(c1ccc(F)cc1F)N1CCC2(CC1)O[C@@H]1CC[C@@H](c3ccccc3)N1C2=O [Example 5.11, (5′S,7a′R)-1-(2,4-difluoro-benzene-1-carbonyl)-5′-phenyltetrahydro-3′H-spiro[piperidine-4,2′-pyrrolo[2,1-b][1,3]oxazol]-3′-one]
< 25	O=C1N2[C@@H](CC[C@H]2c2cc(F)cc(F)c2)OC12CCN(c1ncnc3c(F)cnn13)CC2 [Example 4.250, (5′S,7a′R)-5′-(3,5-difluorophenyl)-1-(8-fluoropyrazolo[1,5-a] [1,3,5]triazin-4-yl)tetrahydro-3′H-spiro[piperidine-4,2′-pyrrolo[2,1-b] [1,3]oxazol]-3′-one]
54.3	N#Cc1ccc(N2CCC3(CC2)O[C@@H]2CC[C@@H](c4cc(F)cc(F)c4)N2C3=O)cc1-n1ccnn1 [Example 4.70, 4-[(5′S,7a′R)-5′-(3,5-difluorophenyl)-3′-oxotetrahydro-1H,3′H-spiro[piperidine-4,2′-pyrrolo[2,1-b] [1,3]oxazol]-1-yl]-2-(1H-1,2,3-triazol-1-yl)benzonitrile]
< 25	O=C1N2[C@@H](CC[C@H]2c2cc(F)cc(F)c2)OC12CCN(c1ccc(Cl)c3ncnn13)CC2 [Example 15.4, (5′S,7a′R)-1-(8-chloro-[1,2,4]triazolo[1,5-a]pyridin-5-yl)-5′-(3,5-difluorophenyl)tetrahydro-3′H-spiro[piperidine-4,2′-pyrrolo[2,1-b]oxazol]-3′-one, TFA salt]
< 25	N#Cc1ccc(N2CCC3(CC2)OC2CCC(c4cnccn4)N2C3=O)n2ncnc12 (centres unmarked) [Example 4.141, 5-[3′-oxo-5′-(pyrazin-2-yl)tetrahydro-1H,3′H-spiro[piperidine-4,2′-pyrrolo[2,1-b] [1,3]oxazol]-1-yl][1,2,4]triazolo[1,5-a] pyridine-8-carbonitrile]
228	CC1(C)Cc2cccc(C(=O)N3CCC4(CC3)O[C@@H]3CC[C@@H](c5cc(F)cc(F)c5)N3C4=O)c2O1 [Example 6.32, (5′S,7a′R)-5′-(3,5-difluorophenyl)-1-(2,2-dimethyl-2,3-dihydro-1-benzo-furan-7-carbonyl)-tetrahydro-3′H-spiro [piperidine-4,2′-pyrrolo[2,1-b][1,3]oxazol]-3′-one]
36.6	Cc1nc(N2CCC3(CC2)O[C@@H]2CC[C@@H](c4ccccc4)N2C3=O)ncc1-c1ccnn1C [Example 21.8, (5′S,7a′R)-1-[4-methyl-5-(1-methyl-1H-pyrazol-5-yl)pyrimidin-2-yl]-5′-phenyltetrahydro-3′H-spiro[piperidine-4,2′-pyrrolo[2,1-b][1,3]oxazol]-3′-one]
213	Cc1ccccc1CN1CCC2(CC1)O[C@@H]1CC[C@@H](c3cc(F)cc(F)c3)N1C2=O [Example 22.5, (5′S,7a′R)-5′-(3,5-difluorophenyl)-1-[(2-methylphenyl)methyl] tetrahydro-3′H-spiro[piperidine-4,2′-pyrrolo[2,1-b][1,3]oxazol]-3′-one]
< 25	O=C1N2[C@@H](CC[C@H]2c2cccc(F)c2)OC12CCN(c1ccnc3ccnn13)CC2 [Example 4.123, (5′S,7a′R)-5′-(3-fluorophenyl)-1-(pyrazolo[1,5-a]pyrimidin-7-yl)tetrahydro-3′H-spiro[piperidine-4,2′-pyrrolo[2,1-b] [1,3]oxazol]-3′-one]
< 25	Cc1nc(N2CCC3(CC2)O[C@@H]2CC[C@@H](c4cccc(F)c4)N2C3=O)ccc1C#N [Example 4.77, 6-[(5′S,7a′R)-5′-(3-fluorophenyl)-3′-oxotetrahydro-1H,3′H-spiro[piperidine-4,2′-pyrrolo[2,1-b] [1,3]oxazol]-1-yl]-2-methylpyridine-3-carbonitrile]
< 25	N#Cc1cccc(C(=O)N2CCC3(CC2)O[C@@H]2CC[C@@H](c4cccc(F)c4)N2C3=O)c1 [Example 6.115, 3-[(5′S,7a′R)-5′-(3-fluorophenyl)-3′-oxo-tetrahydro-1H,3′H-spiro[piperidine-4,2′-pyrrolo[2,1-b][1,3]-oxazole]-1-carbonyl] benzonitrile]
< 25	O=C1N2[C@@H](CC[C@H]2c2cccc(F)c2)OC12CCN(c1ncnc3ccnn13)CC2 [Example 4.204, (5′S,7a′R)-5′-(3-fluorophenyl)-1-(pyrazolo[1,5-a] [1,3,5]triazin-4-yl)tetrahydro-3′H-spiro[piperidine-4,2′-pyrrolo[2,1-b] [1,3]oxazol]-3′-one]
35.6	N#Cc1cc(N2CCC3(CC2)O[C@@H]2CC[C@@H](c4cccc(F)c4)N2C3=O)ncn1 [Example 4.122, 6-[(5′S,7a′R)-5′-(3-fluorophenyl)-3′-oxotetrahydro-1H,3′H-spiro[piperidine-4,2′-pyrrolo[2,1-b] [1,3]oxazol]-1-yl]pyrimidine-4-carbonitrile]
47.1	N#Cc1cccc(C(=O)N2CCC3(CC2)O[C@@H]2CC[C@@H](c4ccccc4)N2C3=O)c1F [Example 6.140, 2-fluoro-3-[(5′S,7a′R)-3′-oxo-5′-phenyltetra-hydro-1H,3′H-spiro [piperidine-4,2′-pyrrolo[2,1-b][1,3]oxazole]-1-carbonyl] benzonitrile]
191	COc1ccnc(N2CCC3(CC2)O[C@@H]2CC[C@@H](c4ccccc4)N2C3=O)c1 [Example 11.30, (5′S,7a′R)-1-(4-methoxypyridin-2-yl)-5′-phenyltetrahydro-3′H-spiro[piperidine-4,2′-pyrrolo[2,1-b][1,3]oxazol]-3′-one]
< 25	O=C1N2[C@@H](CC[C@H]2c2cncc(F)c2)OC12CCN(c1ccnc3c(F)cnn13)CC2 [Example 4.49, (5′S,7a′R)-1-(3-fluoropyrazolo[1,5-a]pyrimidin-7-yl)-5′-(5-fluoropyridin-3-yl)tetrahydro-3′H-spiro[piperidine-4,2′-pyrrolo[2,1-b] [1,3]oxazol]-3′-one]
311	O=C(c1ccc(C(F)F)nc1)N1CCC2(CC1)O[C@@H]1CC[C@@H](c3cc(F)cc(F)c3)N1C2=O [Example 6.66, (5′S,7a′R)-1-[6-(difluoromethyl)pyr-idine-3-carbonyl]-5′-(3,5-difluorophenyl)-tetrahydro-3′H-spiro [piperidine-4,2′-pyrrolo[2,1-b][1,3]-oxazol]-3′-one]

From patent publication US12180226B2, “Spirotricycle RIPK1 inhibitors and methods of uses thereof” (Merck Sharp & Dohme LLC, priority 2021, dated 2024)
